# Test results reported in patent US11793197B2, “Use of an amphidinol for its fungicidal and/or bactericidal activity on fungi, oomycetes and/or pathogenic bacteria of plants and crop seeds” (Immunrise […], priority 2017, dated 2023).
# Tested on: F. graminearum spores
# Format: cell-based, Fusarium graminearum
structure (smiles),measurement,value
C=C/C=C/CC/C=C/C=C/C=C/CC/C=C/[C@H](O)[C@H](O)[C@@H]1O[C@@H]([C@H](O)[C@H](O)C(=C)CC[C@@H](O)[C@H]2C[C@@H](O)[C@@H](O)[C@H]([C@@H](O)[C@H](O)/C=C(\C)CCC(O)CC(O)C(O)C(C)CC(O)C(O)CC(C)CCC(O)CC(=O)CC(O)CCCC(O)CCCCC(O)CO)O2)C[C@@H](O)[C@H]1O (stereo partly shown) [amphidinol 18],antifungal activity against F. graminearum,has antifungal activity
